The values below come from patent US3954871A, “1-(4-Alkylthiopheny)-2-substituted amino-alcohols and their salts” (Continental Pharma, priority 1969, dated 1976).

Data set [1] is described as follows: Solubility of salt in water. The data set is classed as physicochemical. Here is the method:
To 1.20 g of 1-(3-methyl-4-methylthiophenyl)-2-isopropylaminoethanol in 40 ml of water, 1.96 ml of a 50% gluconic acid solution are added. The mixture is heated in water-bath during 1 hour at 70°, then the solution is lyophilised (2.18 g of the salt obtained are soluble in 5 ml of water and give a pH of 4.6).
To 1.2 g of 1-(3-methyl-4-methylthiophenyl)-2-isopropylaminoethanol in 32 ml of water, 0.53 g of a 85% aqueous lactic acid solution are added. The product is heated in a water-bath for 2 hours at 50°, then the solution is lyophilised. (1.55g of the salt obtained are soluble in 5 ml of water).

Data set [2] is described as follows: in vivo. As to conditions: mouse, ip.
Data set [3] has as its system isolated auricles of guinea pigs. The note with it: dose 1.10 - 6 g/ml of bath.
Data set [4] concerns mice. The data set is described as follows: Anti-arrhythmic activity in mice. The data set is classed as in vivo. The note with it: Mus musculus, po, 0.5 h, read-out: Anti-arrhythmic activity: number of mice protected in relation with the number of tested mice. As to the method:
^(4) Number of mice protected in relation with the number of tested
mice (dose = 100 mg/kg per os; recording 30 min. after administration)

A short description of data set [5]: Local anaesthesic activity. It counts as in vivo. As to conditions: read-out: Local anaesthesic activity ED50.
A short description of data set [6]: Peripherical vasodilatator activity (intra-arterial). It counts as in vivo. As to conditions: dose = 30 γ/kg intra-arterial. The source says: activity equal to that of papaverine; ++++ = activity higher than that of
papaverine (dose = 30 γ /kg intra-arterial)

Regarding `CSc1ccc(C(O)CNC(C)C)cc1C` (stereo not shown) [1-(3-Methyl-4-methylthiophenyl)-2-isopropylaminoethanol gluc] [1-(3-Methyl-4-methylthiophenyl)-2-isopropylaminoethanol gluconate], in data set [1] (2.18 g in 5 ml of water), the “pH of solution of salt in water” value amounted to 4.6. For the same compound, the “amount of salt soluble in 5 ml of water” value in data set [1] is given as at least 2.18 g.
In the case of `CSc1ccc(C(O)CNC(C)C)cc1C` (stereo not shown) [1-(3-Methyl-4-methylthiophenyl)-2-isopropylaminoethanol lact] [1-(3-Methyl-4-methylthiophenyl)-2-isopropylaminoethanol lactate], the “amount of salt soluble in 5 ml of water” value in data set [1] is at least 1.55 g.
The LD50 is the dose expected to kill half of the subjects tested. High values mean lower toxicity, low ones greater toxicity. `COc1ccc(Cc2nccc3cc(OC)c(OC)cc23)cc1OC` [Papaverine, reference compound] came in with an LD50 in data set [2] of 300 mg/kg. For the same compound, the “Protection against anoxia, activity” value in data set [3] turned out to be 0.
For orientation: ED50 means the dose that gives a 50% effect, or the effect in half of the subjects. For the compound `CC(C)NCC(O)COc1cccc2ccccc12` (stereo not shown) [Propranolol, reference compound], the “Protection against anoxia, activity” value in data set [3] was determined as 0. In addition, the responders at 100 mg/kg in data set [4] is 100%. For the same compound, the ED50 in data set [5] was 1.4 mg/kg.
As to `CSc1ccc(C(O)CNC(C)C)cc1C` (stereo not shown) [Table III No. 1, 1-(3-methyl-4-methylthiophenyl)-2-isopropylaminoethanol], in data set [2], the LD50 was determined as 150 mg/kg. For the same compound, the “Protection against anoxia, activity” value in data set [3] was “++”. Also, the responders at 100 mg/kg in data set [4] is 60%. In data set [5], the ED50 was 4.5 mg/kg.
The matching figures for `CSc1ccc(C(O)CNC(C)C)cc1Cl` (stereo not shown) [Table III No. 11, 1-(3-Chloro-4-methylthiophenyl)-2-isopropylaminoethanol]: 150 mg/kg, “++”, 55% and over 5 mg/kg.
Turning to `CSc1ccc(C(O)CN2CCCCC2)cc1Cl` (stereo not shown) [Table III No. 24], the Peripherical vasodilatator activity result in data set [6] is listed as “+ ++”. For the same compound, in data set [2], the LD50 worked out at 364 mg/kg.
In the case of `CCc1cc(C(O)CNC(C)C)ccc1SC` (stereo not shown) [Table III No. 47, 1-(3-Ethyl-4-methylthiophenyl)-2-isopropylaminoethanol], the “Protection against anoxia, activity” value in data set [3] is “++”. Also, the responders at 100 mg/kg in data set [4] was 65%.
On to `CCC(C)NCC(O)c1ccc(SC)c(C)c1` (stereo not shown) [compound 33], for which the Peripherical vasodilatator activity entry in data set [6] is reported as “++ +”.
Turning to `CCc1cc(C(O)CNC(C)CC)ccc1SC` (stereo not shown) [compound 51], the Peripherical vasodilatator activity result in data set [6] was “+ ++”.
